Patent publication US20130058957A1, “DENDRITIC CELL IMMUNORECEPTOR AGONIST” (THE UNIVERSITY OF TOKYO, priority 2010, published 2013)
Blank lines part the entries; values can stand above or below the molecule they belong to.

Key:
[1] = tested on: bone marrow cell-derived osteoclasts (OC formation); experiment: In vitro osteoclast formation, count of TRAP-positive multinucleate cells; assay type: cell-based, mouse; settings: for OC differentiation in the presence of carbohydrate chain: carbohydrate chain 10 ng/mL, FIG. 8e; for OC formation (number of TRAP-positive MNCs): KS-II 100 ng/mL, FIGS. 8c, 8d
Procedure: Nonadherent bone marrow cells were seeded in a well plate (in a 24-well plate at 5×10^5 cells/well or in a […] at 3×10^6 cells/well) and were cultured in α-MEM (Gibco BRL) containing 10% FCS (manufactured by Biowest AG) and 10 ng/mL M-CSF (manufactured by R&D Systems, Inc.). After two days, nonadherent cells (including lymphocytes) were washed away, and remaining adherent cells were used as bone marrow-derived macrophages (BMMs). These osteoclast precursor cells (pOCs) were further cultured in the presence of 100 ng/mL of soluble RANKL (manufactured by PeproTech Inc. or Oriental Yeast Co., Ltd.) and 10 ng/mL of M-CSF to obtain osteoclasts. After three days, the osteoclasts were fixed in 10% neutral buffered formalin for three minutes, further kept in a mixture of ethanol/acetone (50:50 v:v) for 1 minute and subsequently incubated in a TRAP staining solution (Naphthol AS-MX phosphate: 5 mg, N,N-dimethylformamide: 0.5 mL, fast red violet LB salt: 30 mg, 0.1 M sodium acetate buffer (pH 5.0) containing 50 mM sodium tartrate: 50 mL) at room temperature. The number of TRAP-positive multinucleate cells (MNCs having three or more nuclei) was counted.
(§1) In order to investigate the influence of GM-CSF on osteoclast formation, mouse GM-CSF enzyme immunoassay (manufactured by PerSeptive Biosystems, Inc.), recombinant GM-CSF (manufactured by PeproTech Inc.), and anti-mouse GM-CSF neutralizing antibody (manufactured by R&D Systems, Inc.) were used. Furthermore, in the proliferation assay, pOCs were seeded (in a 96-well plate at 1×10^4 cells/well) and cultured in the presence of 10 ng/mL M-CSF only or M-CSF and 100 ng/mL RANKL or 20 ng/mL GM-CSF for three days. Subsequently, the cells were exposed to [^3H]TdR (0.5 μCi/mL) overnight.

calvarial OBs = experiment: Mineralization of calvarial osteoblasts (alizarin red and ALP staining of osteogenic culture); assay type: cell-based, mouse; settings: FIG. 10f
Procedure: Primary osteoblasts were isolated from the calvaria of a new born mouse. The calvaria was washed with PBS and was digested in α-MEM containing 0.25% trypsin and 2 mg/mL collagenase P (manufactured by Roche) at 37° C. for 20 minutes. The supernatant was removed, and the cells were further digested for 60 minutes.
In order to induce osteogenesis, primary osteoblasts (in a 96-well plate at 2×10^4 cells/well, in a 24-well plate at 5×10^4 cells/well, or in a 6-well plate at 2×10^5 cells/well) were cultured to confluent, and the culture medium was replaced by a culture medium containing 10 mM β-glycerophosphate and 50 μg/mL ascorbic acid. The culture medium was replaced three times in 21 days.
The osteoblasts cultured for 21 days were stained with alizarin red, von Kossa, and alkaline phosphatase (ALP).
The culture solution was removed from the osteoblasts cultured for 21 days by using PBS, and the osteoblasts were fixed with 3.7% formalin solution (Nacalai Tesque, Inc.) for 10 minutes. […]
Primary osteoblasts were cultured in a 96-well plate for 21 days and were measured with a TRACP & ALP Assay Kit (TaKaRa Bio Inc.). […] The reaction was terminated with 50 μL of a reaction terminating solution, and subsequently the activity was measured with MICROPLATE READER MTP-300 (CORONA ELECTRIC Co., Ltd.) at OD405.

[2] = biological target: T1, recombinant mouse DCIR (mDCIR) (Mus musculus, UniProt Q9QZ15); experiment: Carbohydrate chain binding assay by ELISA; settings: KS-II from bovine articular cartilage immobilised on ELISA plate; FIG. 8b
T1 construct: containing an extracellular domain (99th to 238th residues) was expressed as an inclusion body in E. coli; made in house
T1 sequence (Q9QZ15 99-238): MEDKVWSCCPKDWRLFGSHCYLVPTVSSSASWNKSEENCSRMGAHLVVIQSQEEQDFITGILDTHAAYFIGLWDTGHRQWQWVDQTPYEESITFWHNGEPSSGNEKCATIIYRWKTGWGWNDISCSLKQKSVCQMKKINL
Procedure: Carbohydrate chain binding assay was performed in accordance with the method described in J. Bio. Chem., 2004, 279, 29043-29049. KS-II was diluted to 2 mg/mL with 100 mM sodium acetate (pH 5.5) and was oxidized with 2 mM sodium metaperiodate on ice for 1 hour to obtain a reactive aldehyde group. After further dilution, KS-II was incubated on a Covalink ELISA plate at 4° C. overnight and was reduced with 0.3% sodium cyanoborohydride at room temperature for 1.5 hours for covalent bonding. The plate was washed and was blocked with 2% bovine serum albumin (fraction V: manufactured by Sigma Corp.) at 37° C. for two hours. A recombinant mouse DCIR (mDCIR) containing an extracellular domain (99th to 238th residues) was expressed as an inclusion body in E. coli BL21 (DE3) pLysS using a pGMT7 plasmid and the […] was refolded by a typical dilution method. The mDCIR was incubated on the blocked and refolded plate at 4° C. overnight. Binding of protein was detected using anti-DCIR antibodies (a mixture of 320507 and 320511: manufactured by R&D Systems, Inc.) and HRP-linked rat IgG (manufactured by Zymed) in the presence of a TMB substrate (manufactured by Dako).

OPG/RANKL ratio = experiment: Real-time RT-PCR of OPG/RANKL ratio in calvarial OBs; assay type: cell-based; settings: WT mouse-derived OBs only (not KO); FIGS. 10k, 10l
Procedure: Semi-quantitative RT-PCR and real-time RT-PCR were slightly modified, but basically performed in accordance with the methods described in Nature Medicine, 2008, vol. 14, no. 2: 176-180 and Arthritis Res. Ther., 2006, 8, R100, 1-13. Total RNA was prepared by a typical acid guanidinium thiocyanate-phenol-chloroform method or a method using Sepasol-RNA I Super (manufactured by Nacalai Tesque, Inc.). The prepared RNA was reverse transcribed with SuperScript III First-Strand Synthesis System for RT-PCR (manufactured by Invitrogen) to prepare cDNA.
The real-time RT-PCR was performed using primers shown in Table 1, SYBR Green qPCR kit (manufactured by Invitrogen), and iCycler (manufactured by Bio-Rad Laboratories, Inc.).

DCIR = biological target: T2, DCIR (Mus musculus, UniProt Q9QZ15); experiment: Immunoprecipitation/immunoblot analysis of DCIR activation in pOC lysate after KS-II stimulation; assay type: cell-based; settings: immunoprecipitated with anti-DCIR antibody, FIG. 8f
T2 construct: immunoblot analysis for ITIM phosphorylation and SHP-1 recruitment in pOC lysate after KS-II stimulation; endogenous in cells; host or cells: mouse bone-marrow-derived osteoclast precursor cells (pOC)
T2 sequence (Q9QZ15 1-238): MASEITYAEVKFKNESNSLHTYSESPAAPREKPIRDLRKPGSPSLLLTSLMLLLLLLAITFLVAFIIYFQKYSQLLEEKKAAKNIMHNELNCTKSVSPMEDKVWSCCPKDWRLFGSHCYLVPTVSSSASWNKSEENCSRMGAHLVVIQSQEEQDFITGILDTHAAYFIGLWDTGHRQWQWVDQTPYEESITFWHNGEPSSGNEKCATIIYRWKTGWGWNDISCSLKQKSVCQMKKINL
Text: In immunoprecipitation analysis, Protein G-Sepharose 4 Fast Flow (manufactured by GE Healthcare), mouse DCIR-specific antibody (320511: manufactured by R&D Systems, Inc.), phospho-Tyr (4G10: manufactured by Millipore), and SHP-1 (HG213: Upstate) were used. As the secondary antibody, a rabbit IgG-specific HRP-linked polyclonal antibody (manufactured by Cell Signaling) or a rat IgG-specific HRP-linked polyclonal antibody (manufactured by Zymed) was used.

[3] = tested on: osteoclast precursor cells (pOCs); experiment: Osteoclast differentiation with hybridoma supernatant or KS-II, count of TRAP-positive osteoclasts; assay type: cell-based; settings: KS-II 10 ng/mL; M-CSF 10 ng/mL + RANKL 100 ng/mL, three days; versus untreated; FIG. 13
Procedure: Furthermore, activities of the above-mentioned antibodies on osteoclast formation were evaluated using the activity of keratan sulfate as an indicator. Nonadherent bone marrow cells were seeded in a well plate (a 96-well plate at 1×10^5 cells/well) and were cultured in α-MEM (Gibco BRL) containing 10% FCS (manufactured by Biowest AG) and 10 ng/mL M-CSF (manufactured by R&D Systems, Inc.). After two days, the nonadherent cells (including lymphocytes) were washed away, and the remaining adherent cells were used as bone marrow-derived macrophages (BMMs). These osteoclast precursor cells (pOCs) were further cultured in the presence of 100 ng/mL of soluble RANKL (manufactured by PeproTech Inc. or Oriental Yeast Co., Ltd.) and 10 ng/mL of M-CSF to obtain osteoclasts. During the culturing, the hybridoma supernatant (one-tenth amount) or keratan sulfate (KS-II: 10 ng/mL) was added to the culture medium. After three days, the cells were collected and stained with TRAP. The number of TRAP-positive osteoclasts (having three or more nuclei) was counted. Untreated cells were used as a control (NT).

TNF-α = TNF-α production in CpG-containing culture, measured by ELISA; assay type: cell-based; settings: CpG 1 μM, 12 hours; KS-II 10 ng/mL, versus CpG alone; FIG. 12
Procedure: The anti-DCIR antibodies derived from hybridomas prepared in Example 4 were evaluated for binding ability to DCIR. Since DCIR has been reported to participate in suppression of immunoreaction (Nature Medicine, 2008, vol. 14, no. 2: 176-180), the DCIR-binding ability of each antibody was evaluated using expression of tumor necrosis factor α (TNF-α), which is an inflammatory cytokine, as a standard.
The hybridoma prepared in Example 4 was cultured in a culture medium containing CpG (concentration: 1 μM) for 12 hours, and the culture supernatant was collected. Separately, CpG ODN 1668 (Operon Technologies, Inc.) was cultured in the same medium or a medium further containing keratan sulfate (KS-II: 10 ng/mL), and the culture supernatant was collected. As a control, the cells were cultured in a CpG-free culture medium (NT). The TNF-α amount in each supernatant was measured by ELISA.

[4] = tested on: osteoclast precursor cells (pOCs); experiment: Proliferation assay using pOC after GM-CSF stimulation; assay type: cell-based, mouse; settings: Dcir−/− pOCs; M-CSF 10 ng/mL and GM-CSF 20 ng/mL
Procedure: as §1

Molecule: CC(=O)N[C@H]1C(O)O[C@H](CO)[C@@H](O[C@@H]2O[C@H](CO)[C@H](O)[C@H](O)[C@H]2O)[C@@H]1O (some centres unmarked) [LacNAc, N-acetyllactosamine]
OC differentiation in the presence of carbohydrate chain [1]: not influenced

Molecule: chondroitin sulfate A
OC differentiation in the presence of carbohydrate chain [1]: not influenced

Molecule: dermatan sulfate
OC differentiation in the presence of carbohydrate chain [1]: not influenced

binding of recombinant mouse DCIR to KS-II [2]: concentration-dependently binds
phosphorylation of immunoreceptor tyrosine-based inhibitory motif (ITIM) in DCIR (DCIR): concentration-dependently accelerates
recruitment of tyrosine phosphatase SHP-1 in DCIR (DCIR): concentration-dependently accelerates
Molecule: keratan sulfate-II [KS-II]
mineralization of OBs (calvarial OBs; Dcir−/− OBs): does not suppress
mineralization of OBs (calvarial OBs; WT OBs): suppresses
OPG/RANKL ratio (OPG/RANKL ratio): decreases
differentiation to osteoclast (TRAP-positive, three or more nuclei) [3]: suppressed
TNF-α production (TNF-α): suppressed
OC formation (number of TRAP-positive MNCs) ([1]; Dcir−/− cell culture): did not inhibit
OC formation (number of TRAP-positive MNCs) ([1]; wild-type (WT) bone marrow cell culture): considerably inhibited

B1: GM-CSF: recombinant mouse GM-CSF (manufactured by PeproTech Inc.) (protein, UniProt P01587 18-141, looked up)
Granulocyte-macrophage …: APTRSPITVTRPWKHVEAIKEALNLLDDMPVTLNEEVEVVSNEFSFKKLTCVQTRLKIFEQGLRGNFTKLKGALNMTASYYQTYCPPTPETDCETQVTTYADFIDSLKTFLTDIPFECKKPGQK
proliferation of pOCs [4]: significantly increased
